Experimental data published in a compilation of properties of binary mixtures (doi:10.1021/acs.jced.5b00338).

Experiment: xn = mol fraction of the nth substance listed
Conditions: 100 kPa

O=C1OCCO1 + CC[n+]1ccn(C)c1.O=S(=O)([N-]S(=O)(=O)C(F)(F)F)C(F)(F)F
Conditions | electrical conductivity [S/m] | viscosity [mPa·s]
293.15 K, x1 = 0.33 | 1.02 | –
293.15 K, x1 = 0.5263 | – | 15.1
293.15 K, x1 = 0.53 | 1.24 | –
293.15 K, x1 = 0.7476 | – | 8.1
293.15 K, x1 = 0.75 | 1.57 | –
293.15 K, x1 = 0.82 | 1.52 | –
293.15 K, x1 = 0.87 | 1.44 | –
293.15 K, x1 = 0.91 | 1.33 | –
293.15 K, x1 = 0.95 | 1.03 | –
303.15 K, x1 = 0.8163 | – | 4.1
303.15 K, x1 = 0.9467 | – | 3
313.15 K, x1 = 0.33 | 1.68 | –
313.15 K, x1 = 0.5263 | – | 9
313.15 K, x1 = 0.53 | 1.97 | –
313.15 K, x1 = 0.66 | 2.32 | –
313.15 K, x1 = 0.7476 | – | 4.6
313.15 K, x1 = 0.75 | 2.34 | –
313.15 K, x1 = 0.8163 | – | 3.4
313.15 K, x1 = 0.82 | 2.23 | –
313.15 K, x1 = 0.87 | 2.05 | –
313.15 K, x1 = 0.91 | 1.86 | –
313.15 K, x1 = 0.9467 | – | 2.4
313.15 K, x1 = 0.98 | 0.85 | –
313.15 K, x1 = 1 | – | 1.81
323.15 K, x1 = 0.5263 | – | 7.1
323.15 K, x1 = 0.7476 | – | 3.9
323.15 K, x1 = 0.8163 | – | 2.8
323.15 K, x1 = 0.9467 | – | 2.1
323.15 K, x1 = 1 | – | 1.56
333.15 K, x1 = 0.5263 | – | 5.8
333.15 K, x1 = 0.53 | 2.71 | –
333.15 K, x1 = 0.66 | 3.2 | –
333.15 K, x1 = 0.7476 | – | 3.3
333.15 K, x1 = 0.75 | 3.18 | –
333.15 K, x1 = 0.82 | 2.98 | –
333.15 K, x1 = 0.87 | 2.7 | –
333.15 K, x1 = 0.91 | 2.45 | –
333.15 K, x1 = 0.9467 | – | 1.84
333.15 K, x1 = 0.98 | 1.1 | –
333.15 K, x1 = 1 | – | 1.4
343.15 K, x1 = 0.7476 | – | 2.7
343.15 K, x1 = 0.8163 | – | 1.97
343.15 K, x1 = 0.9467 | – | 1.48
353.15 K, x1 = 0.33 | 3.29 | –
353.15 K, x1 = 0.5263 | – | 4
353.15 K, x1 = 0.53 | 4.04 | –
353.15 K, x1 = 0.7476 | – | 2.3
353.15 K, x1 = 0.75 | 4.43 | –
353.15 K, x1 = 0.8163 | – | 1.74
353.15 K, x1 = 0.87 | 3.59 | –
353.15 K, x1 = 0.91 | 3.01 | –
353.15 K, x1 = 0.95 | 2.29 | –
353.15 K, x1 = 1 | – | 1.07
363.15 K, x1 = 0.5263 | – | 3.4
363.15 K, x1 = 0.7476 | – | 2.03
363.15 K, x1 = 0.9467 | – | 1.2
363.15 K, x1 = 1 | – | 0.96
373.15 K, x1 = 0.7476 | – | 1.83
373.15 K, x1 = 0.8163 | – | 1.4
373.15 K, x1 = 0.9467 | – | 1.08
383.15 K, x1 = 0.5263 | – | 2.7
383.15 K, x1 = 0.8163 | – | 1.29
383.15 K, x1 = 0.9467 | – | 0.97
383.15 K, x1 = 1 | – | 0.74
393.15 K, x1 = 0.5263 | – | 2.4
393.15 K, x1 = 0.8163 | – | 1.19
393.15 K, x1 = 1 | – | 0.71

CC[n+]1ccn(C)c1.O=S(=O)([N-]S(=O)(=O)C(F)(F)F)C(F)(F)F + O=C1OCCO1
x2 = 0
Conditions | electrical conductivity [S/m] | viscosity [mPa·s]
293.15 K | 0.73 | 41.6
298.15 K | 0.9 | 33.9
303.15 K | – | 27.3
313.15 K | 1.29 | 19.1
323.15 K | – | 14.4
333.15 K | 1.94 | 11.3
343.15 K | – | 8.3
353.15 K | 2.73 | 6.8
363.15 K | – | 5.6
373.15 K | – | 4.8
